Results published in US20170176446A1, “Methods for Determining the Oncogenic Condition of Cell, Uses Thereof, and Methods for Treating Cancer” (INSERM (INSTITUT NATIONAL DE LA SANTE ET DE LA RECHERCHE …, priority 2009, published 2017).

Assays:
[1] = test system: TT cells; assay: Effect of OCDO on TT tumors implanted in Swiss nude mice; type: in vivo
Description: (§1) a) In this example 2, the human medullary thyroid carcinoma cell line TT (American Tissues and Cells Collection) was used. This line is cultured in an F12K medium modified by Kaighn (sold by the company Invitrogen), containing 10% by weight of fetal calf serum and 2.5 ml of a solution of antibiotics (penicillin/streptomycin) at […]. The OCDO tested comes from the company Steraloids. In order to study in vitro the effect of OCDO on cell growth, the TT cells are seeded on to six-well plates (200 000 cells per well) in an F12K medium as defined above. The TT cells are treated every two days either with a solvent (ethanol at 0.1% in PBS phosphate buffer) or with amounts of OCDO in the solvent resulting in concentrations of 0.1, 1, 2.5 or 5 μM. The cells are counted 4 days after seeding. […] At the OCDO concentration of 5 μM, a proliferation induction factor of 1.5 is measured after 4 days of treatment; the induction of proliferation is therefore established in vitro for OCDO concentrations of between 100 nM and 5 μM. […] The animals (5 or 10 mice per group) are monitored regularly in order to measure tumor development. The volume of the tumors is calculated according to the formula L×l^2×0.5, where L is the length and l is the width of the tumor. […]
The animals were euthanized after 75 days of treatment and the tumor and the various organs were removed in order to be analyzed histologically. […]

[2] = test system: TT cells; assay: Effect of OCDO on TT cell proliferation in vitro; type: cell-based, human; conditions: 5 μM OCDO, 4 days of treatment, versus solvent
Description: as §1

[3] = test system: T lymphocytes; conditions: concentrations between 1 and 20 μM; cited from earlier work
[4] = test system: leukocyte; conditions: concentrations between 1 and 20 μM; cited from earlier work
[5] = test system: phorbol ester-binding protein; conditions: cited from earlier work
[6] = test system: T lymphocytes originating from human serum; conditions: concentrations between 1 and 20 μM; cited from earlier work
[7] = test system: IL10; assay: IL10 gene expression in THP1 cells treated with OCDO; type: cell-based, human; conditions: 10 μM OCDO, 4 hours
Description: (§2) The THP1 cells (human myeloid cell line supplied by ATCC) are cultured with a culture medium of DMEM type (Dulbecco's modified eagle medium) supplemented with 10% of fetal calf serum and a mixture of antibiotics. The THP1 cells are treated with 10 μM of OCDO for 4 hours. The RNAs are extracted according to a conventional procedure. The complementary DNAs are produced, and then used to measure the expression of the genes of interest. The expression of the genes encoding interleukin 12 (IL12) and interleukin 10 (IL10) were studied, these interleukins representing a pair of cytokines with antagonistic properties. IL12 is an immunostimulatory cytokine, whereas IL10 is an immunosuppressive cytokine. The expression ratio of these two cytokines makes it possible to evaluate the immunosuppressor or immunostimulatory potential of the cell and its ability to promote tumor progression or, on the contrary, to slow it down.
(§3) The primers used correspond to the human sequences of IL10 and of IL12 and are the following: […]

[8] = test system: IL12; assay: IL12 gene expression in THP1 cells treated with OCDO; type: cell-based, human; conditions: 10 μM OCDO, 4 hours
Description: as §2, §3

[9] = test system: NK cell; conditions: concentrations between 1 and 20 μM; cited from earlier work
[10] = molecular target: T1, ChEH (Mus musculus, UniProt P70245); assay: Conversion of [14C]CEα in cells of healthy mouse tissues with or without tamoxifen; type: cell-based; conditions: incubation with tamoxifen
T1 construct: evaluated in cells of various healthy mouse tissues; from tissue; host or cells: cells from various healthy mouse organs

[11] = molecular target: T2, ChEH (Homo sapiens, UniProt Q15125); assay: Inhibition of ChEH activity in MCF7 cells (TLC of [14C]CE conversion); type: cell-based; conditions: tamoxifen 0.01-5 μM with [14C]CEα; PBPE 0.01-10 μM with [14C]CEβ
T2 construct: MCF7 tumor cells, which originate from the American Tissue Culture Collection (ATCC), were used; host or cells: MCF7
Description: For this experiment, an aminoalkyl sterol included in French patent 2 838 741 (and also see: de Medina et al., J Med Chem: 2009, vol. 52, No. 23, p. 7765-7777), having the formula: 6-N-[2-(3H-imidazol-4-yl)ethylamino]cholestane-3β,5α-diol (DDA), was chosen. […]
A thin-layer chromatography was carried out, the plate of which has been reproduced in FIG. 23. On this plate, the incubation is carried out, for lane 1, with [^14C]CE; for lane 2, with [^14C]CT; for lane 3, with the vehicle solvent, which is the same as that used for assays 1 to 5; for lane 4, with [14C]CE and 0.1 μM of the aminoalkyl sterol; and for lane 5, with [^14C]CE and a concentration of 1 μM of the aminoalkyl sterol.

[12] = test system: OCDO; assay: OCDO content of TS/A tumors by GC/MS; type: in vivo, mice; conditions: tamoxifen 10 μM, 100 μl intratumorally once a day
Description: 5 volumes (relative to the mass removed) of buffer (50 mM Tris-HCl, 150 mM KCl, pH=7.4) are added. The tumors are ground and the homogenates are centrifuged for 5 minutes at 2500 rpm at 4° C. […] After centrifugation (to separate the phases), the organic phase is recovered. The organic phase is evaporated to dryness and then the residue is taken up with 0.5 ml of chloroform. The organic extracts are filtered on 0.5 ml silica cartridges. The polar sterols are eluted sequentially:
1) 0.5 ml of a hexane/chloroform mixture (1/1), 2) 0.5 ml of chloroform, 3) 0.5 ml of ethyl acetate and methanol.
The ethyl acetate fractions are evaporated, silylated (50 μl 1/1 acetonitrile/BSTFA) and then analyzed by GC/MS (2 μl) according to the conditions described above.

[13] = test system: TS/A cells; assay: Tumor size of TS/A tumors implanted in BALB/c mice, intratumoral treatment; type: in vivo; conditions: for Tumor size (% control): tamoxifen 10 μM, 100 μl intratumorally once a day
Description: A cell culture of TS/A cells was first performed. These TS/A cells are mouse mammary adenocarcinomas (see Nanni P et al., Clin. Exp. Metastasis, 1983 October-December; 1(4): 373-80). The cells are cultured, at 37° C. under 5% CO2, in a DMEM medium supplemented with 2 g/liter of sodium carbonate, 1.2 mM of glutamine (pH 7.4 at 23° C.), 5% of fetal bovine serum (Gibco) and 2.5 ml of antibiotics per liter of medium (penicillin/streptomycin).
The TS/A cells are recovered with trypsin, washed twice and suspended in PBS buffer. The TS/A cells (approximately 4×10^6 […] cells/0.1 ml) are then injected subcutaneously into the flank of 6-week-old female BALB/c mice (supplied by Charles River). […] The animals (10 mice per group) are monitored regularly for tumor development. The volume of the tumors is calculated according to the following formula: L×l^2×0.5 (L is the length and l is the width of the tumor). The experiment was reproduced twice. The results are given in FIG. 18 (the arrow indicates the beginning of the treatment).

[14] = test system: MCF7 cells; assay: OCDO production by MCF7 cells incubated with [14C]CE, thin-layer chromatography; type: cell-based, human
Description: For assays 1 to 5 and in some of the examples given later in this patent application, MCF7 tumor cells, which originate from the American Tissue Culture Collection (ATCC), were used. […] It is desired to study the activity of ChEH in […] cells by silica thin-layer chromatography. The compounds that it is desired to visualize are the CE and CT compounds defined above. In order to visualize the spots corresponding to CE and CT on a chromatography plate, ^14C-labeled CE and CT compounds were synthesized.
In order to be used in assays 1 to 5 which follow, the cells are seeded into 6-well plates at a density of 80 000 cells in a volume of 2 ml. […] After the incubation time desired for the assay, the medium is collected, the cells are washed with cold PBS (phosphate buffer) (2 ml per well) which is pooled with the medium. The cells are then scraped into cold PBS (1 ml for 3 wells); the wells are again rinsed with cold PBS (1 ml for 3 wells). The cell suspension obtained is centrifuged at 1000 rpm for 5 min at 4° C. […] Throughout the rest of this description, the vehicle solvent used is the same as that defined above.
The aqueous and organic radioactivities are counted. The organic phases are brought to dryness under argon. The residue is resuspended in 60 μl of ethanol and then deposited, in a proportion of 20 μl per lane, on to the glass-backed silica plates (Whatman LK-6-DF, 20×20), which are used in the various assays (these plates having been preheated at 100° C. for 1 hour). The migration solvent used is ethyl acetate. The chromatography plates are placed in contact with a “phosphor-screen” plate in a cassette overnight. […] In order to evaluate the more or less dense nature of the spots obtained on the plates, the radioactivity is quantified by densitometry with the “Imagequant”™ computer program.
Generally, in order to establish the percentages of OCDO inhibition from the thin-layer chromatography (TLC) plates obtained as in assay 2, the radioactive metabolites are identified and quantified on the basis of said plates using a europium-sensitive plate of GP Phosphor screen type (GE Healthcare) and a Storm 840 phosphorimagor (GE Healthcare). The proportion of radiolabeled oxysterols is determined on the autoradiogram obtained by densitometry using the Image Quant 5.2 software. The percentage is calculated on the basis of the ratio between the amount of oxysterols quantified divided by the sum of the amounts of oxysterols (CEE+CE+CT+OCDO). Since the CEE (CE ester) originates exclusively from the CE, the percentage CE is calculated on the basis of the ratio (CE+CEE)/(CE+CEE+CT+OCDO).
Assay 2 given above was therefore completed by measuring the amounts of the products present when the MCF7 tumor cells are incubated as indicated in detail in assay 2.
In order to establish that the link that exists between, on the one hand, the ability of various compounds to inhibit OCDO in an MCF7 tumor cell and, on the other hand, their quality as a ChEH inhibitor, is well-founded, the inhibition coefficients Ki for ChEH relating to a certain number of products was calculated and the production of OCDO by MCF7 cells after incubation of the cells with the same products was measured according to the protocol defined in assay 2 of the present patent application.

T2 sequence (Q15125 whole entry): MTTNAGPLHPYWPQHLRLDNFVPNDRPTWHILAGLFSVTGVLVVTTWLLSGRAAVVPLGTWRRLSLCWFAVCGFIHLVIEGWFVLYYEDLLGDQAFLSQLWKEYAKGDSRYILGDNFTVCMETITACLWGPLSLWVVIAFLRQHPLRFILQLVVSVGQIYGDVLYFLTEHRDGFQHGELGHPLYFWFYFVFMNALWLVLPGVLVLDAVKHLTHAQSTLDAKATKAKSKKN
T1 sequence (P70245 whole entry): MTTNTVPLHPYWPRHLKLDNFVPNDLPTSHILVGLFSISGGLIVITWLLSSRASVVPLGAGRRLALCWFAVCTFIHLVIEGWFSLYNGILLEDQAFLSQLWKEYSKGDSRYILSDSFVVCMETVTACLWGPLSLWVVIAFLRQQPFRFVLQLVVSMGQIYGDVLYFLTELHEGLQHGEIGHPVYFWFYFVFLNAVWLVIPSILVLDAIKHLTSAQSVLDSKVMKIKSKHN

SMILES: CC(C)CCC[C@@H](C)[C@H]1CC[C@H]2[C@@H]3CC(=O)[C@@]4(O)C[C@@H](O)CC[C@]4(C)[C@H]3CC[C@]12C [OCDO, 6-oxo-cholestane-3β,5α-diol]
- tumor volume versus control animals treated with the solvent ([1]; OCDO 50 μg/kg subcutaneously once a day, 5 days out of 7): almost three times larger
- invasion of the lymph nodes versus solvent ([1]; OCDO 50 μg/kg, after 75 days of treatment): Twice as much invasion of the lymph nodes
- proliferation induction factor [2]: 1.5
- cytolytic activity produced by T lymphocytes in mice [3]: inhibit the cytolytic activity produced by T lymphocytes
- leukocyte mobility [4]: inhibit leukocyte mobility
- binding to a phorbol ester-binding protein [5]: binds to a phorbol ester-binding protein
- rosette formation by T lymphocytes [6]: inhibit rosette formation by T lymphocytes
- expression of the immunosuppressive cytokine IL10 [7]: stimulates the expression
- expression of the cytokine IL12 [8]: reduces the expression
- NK cell toxicity in mice [9]: induce NK cell toxicity

SMILES: CC/C(=C(\c1ccccc1)c1ccc(OCCN(C)C)cc1)c1ccccc1 [Tamoxifen, 2-[4-[(Z)-1,2-di(phenyl)but-1-enyl]phenoxy]-N,N-dimethylethanamine]
- formation of CT from [14C]CEα in healthy mouse tissue cells [10]: the CT compound no longer appears
- inhibition of the ChEH activity (3 days) in MCF7 cells [11]: Dose-dependent inhibition
- OCDO (% control) ([12]; Day 28): 19.2 ± 4 % control
- OCDO (% control) ([12]; Day 37): 8.4 ± 4 % control
- Tumor size (% control) ([13]; Day 28): 73.5 ± 8 % control
- Tumor size (% control) ([13]; Day 37): 46.2 ± 7 % control
- tumor mass ([13]; tumor removed on day 28 from one treated animal, control animal tumor 2 g): 1.45 g
- % OCDO ([14]; MCF7 cells, [14C]CEα, three days, concentration given with each compound, share of labeled oxysterols): 6.9%
- OCDO production by MCF-7 (% control) ([14]; concentration in μM in parentheses after each molecule, control = 100): <1 % control
